Reference: ChEMBL document CHEMBL4507323, “Data for DCP probe Ogerin” (2021)

Legend:
[1] = target: T1, 5-hydroxytryptamine receptor 2B (Homo sapiens, UniProt P41595); assay: GPCRScan assay: inhibition of 5-HT2B; parameters: radioligand conc. used [nm] 1.0 – 2.0, parental cells stable HEK
[2] = target: 5-hydroxytryptamine receptor 1A (Homo sapiens) (UniProt P08908); conditions: Compound concentration 10.0 uM
[3] = target: 5-hydroxytryptamine receptor 1B (Homo sapiens) (UniProt P28222); conditions: Compound concentration 10.0 uM
[4] = target: 5-hydroxytryptamine receptor 1D (Homo sapiens) (UniProt P28221); conditions: Compound concentration 10.0 uM
5-hydroxytryptamine receptor 1D (Homo sapiens), sequence (P28221 whole entry): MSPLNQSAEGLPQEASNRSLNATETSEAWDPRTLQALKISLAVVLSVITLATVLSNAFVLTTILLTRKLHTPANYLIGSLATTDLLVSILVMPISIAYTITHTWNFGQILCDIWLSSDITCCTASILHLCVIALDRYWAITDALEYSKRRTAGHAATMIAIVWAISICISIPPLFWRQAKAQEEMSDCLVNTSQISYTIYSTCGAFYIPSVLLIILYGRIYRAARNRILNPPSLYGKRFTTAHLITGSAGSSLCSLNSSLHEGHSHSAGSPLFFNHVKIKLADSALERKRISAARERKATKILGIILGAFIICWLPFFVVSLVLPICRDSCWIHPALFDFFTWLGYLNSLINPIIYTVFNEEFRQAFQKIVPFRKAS

[5] = target: 5-hydroxytryptamine receptor 2A (Homo sapiens) (UniProt P28223); conditions: Compound concentration 10.0 uM
[6] = target: T1, 5-hydroxytryptamine receptor 2B; conditions: Compound concentration 10.0 uM
[7] = target: 5-hydroxytryptamine receptor 2C (Homo sapiens) (UniProt P28335); conditions: Compound concentration 10.0 uM
[8] = target: 5-hydroxytryptamine receptor 3A (Homo sapiens) (UniProt P46098); conditions: Compound concentration 10.0 uM
[9] = target: 5-hydroxytryptamine receptor 5A (Homo sapiens) (UniProt P47898); conditions: Compound concentration 10.0 uM
[10] = target: 5-hydroxytryptamine receptor 6 (Homo sapiens) (UniProt P50406); conditions: Compound concentration 10.0 uM
[11] = target: 5-hydroxytryptamine receptor 7 (Homo sapiens) (UniProt P34969); conditions: Compound concentration 10.0 uM
[12] = target: D(1A) dopamine receptor (Homo sapiens) (UniProt P21728); conditions: Compound concentration 10.0 uM
D(1A) dopamine receptor (Homo sapiens), sequence (P21728 whole entry): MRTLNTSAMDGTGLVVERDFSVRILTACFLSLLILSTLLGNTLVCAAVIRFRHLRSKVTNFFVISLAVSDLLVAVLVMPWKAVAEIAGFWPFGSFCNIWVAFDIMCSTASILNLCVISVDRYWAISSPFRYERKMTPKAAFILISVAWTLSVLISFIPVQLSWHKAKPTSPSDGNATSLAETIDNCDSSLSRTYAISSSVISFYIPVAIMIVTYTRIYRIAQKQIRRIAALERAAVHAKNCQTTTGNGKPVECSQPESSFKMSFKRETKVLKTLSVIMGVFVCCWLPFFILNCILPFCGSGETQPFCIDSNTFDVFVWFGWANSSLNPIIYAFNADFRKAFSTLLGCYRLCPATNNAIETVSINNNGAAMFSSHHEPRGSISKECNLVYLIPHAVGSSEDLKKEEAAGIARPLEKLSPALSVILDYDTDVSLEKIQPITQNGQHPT

[13] = target: D(2) dopamine receptor (Homo sapiens) (UniProt P14416); conditions: Compound concentration 10.0 uM
[14] = target: D(3) dopamine receptor (Homo sapiens) (UniProt P35462); conditions: Compound concentration 10.0 uM
[15] = target: D(4) dopamine receptor (Homo sapiens) (UniProt P21917); conditions: Compound concentration 10.0 uM
[16] = target: D(1B) dopamine receptor (Homo sapiens) (UniProt P21918); conditions: Compound concentration 10.0 uM
[17] = target: Sodium-dependent serotonin transporter (Homo sapiens) (UniProt P31645); conditions: Compound concentration 10.0 uM
[18] = target: Sodium-dependent noradrenaline transporter (Homo sapiens) (UniProt P23975); conditions: Compound concentration 10.0 uM
[19] = target: Sodium-dependent dopamine transporter (Homo sapiens) (UniProt Q01959); conditions: Compound concentration 10.0 uM
[20] = target: Mu-type opioid receptor (Homo sapiens) (UniProt P35372); conditions: Compound concentration 10.0 uM
Mu-type opioid receptor (Homo sapiens), sequence (P35372 whole entry): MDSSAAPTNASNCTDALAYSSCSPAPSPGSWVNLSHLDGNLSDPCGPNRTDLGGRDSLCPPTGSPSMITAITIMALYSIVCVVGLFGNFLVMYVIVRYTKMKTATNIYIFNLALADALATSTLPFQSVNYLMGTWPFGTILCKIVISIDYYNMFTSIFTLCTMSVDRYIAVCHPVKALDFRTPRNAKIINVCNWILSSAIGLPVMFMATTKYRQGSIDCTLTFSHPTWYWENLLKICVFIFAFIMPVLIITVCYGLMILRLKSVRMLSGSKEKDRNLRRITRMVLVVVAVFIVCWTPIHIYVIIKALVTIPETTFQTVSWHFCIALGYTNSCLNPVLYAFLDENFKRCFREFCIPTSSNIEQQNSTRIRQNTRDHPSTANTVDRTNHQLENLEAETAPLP

[21] = target: Delta-type opioid receptor (Homo sapiens) (UniProt P41143); conditions: Compound concentration 10.0 uM
[22] = target: Kappa-type opioid receptor (Homo sapiens) (UniProt P41145); conditions: Compound concentration 10.0 uM
[23] = target: T2, GABA-A receptor; anion channel (Rattus norvegicus) (UniProt O09028+P15431+P18506+P18508+P19969+P20236+P23574+P23576+P28471+P28473+P30191+P62813+P63079+P63138+Q91ZM7+Q9ES14); conditions: Compound concentration 10.0 uM
[24] = target: Histamine H1 receptor (Homo sapiens) (UniProt P35367); conditions: Compound concentration 10.0 uM
[25] = target: Histamine H3 receptor (Homo sapiens) (UniProt Q9Y5N1); conditions: Compound concentration 10.0 uM
[26] = target: Histamine H4 receptor (Homo sapiens) (UniProt Q9H3N8); conditions: Compound concentration 10.0 uM
[27] = target: Alpha-1A adrenergic receptor (Homo sapiens) (UniProt P35348); conditions: Compound concentration 10.0 uM
[28] = target: Alpha-2A adrenergic receptor (Homo sapiens) (UniProt P08913); conditions: Compound concentration 10.0 uM
[29] = target: Alpha-2B adrenergic receptor (Homo sapiens) (UniProt P18089); conditions: Compound concentration 10.0 uM
[30] = target: Alpha-2C adrenergic receptor (Homo sapiens) (UniProt P18825); conditions: Compound concentration 10.0 uM
Alpha-2C adrenergic receptor (Homo sapiens), sequence (P18825 whole entry): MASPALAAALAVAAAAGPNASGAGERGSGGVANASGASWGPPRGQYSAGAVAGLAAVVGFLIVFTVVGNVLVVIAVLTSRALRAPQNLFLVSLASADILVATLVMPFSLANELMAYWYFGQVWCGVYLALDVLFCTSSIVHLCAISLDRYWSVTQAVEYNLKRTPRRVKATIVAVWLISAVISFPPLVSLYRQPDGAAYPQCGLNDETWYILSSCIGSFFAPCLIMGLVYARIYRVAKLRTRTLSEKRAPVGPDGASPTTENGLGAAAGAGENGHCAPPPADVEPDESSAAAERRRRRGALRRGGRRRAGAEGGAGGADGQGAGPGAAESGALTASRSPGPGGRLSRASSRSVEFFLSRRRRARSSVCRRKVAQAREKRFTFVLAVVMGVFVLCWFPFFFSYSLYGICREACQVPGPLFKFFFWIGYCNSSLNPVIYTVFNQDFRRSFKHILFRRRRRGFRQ

[31] = target: Beta-1 adrenergic receptor (Homo sapiens) (UniProt P08588); conditions: Compound concentration 10.0 uM
Beta-1 adrenergic receptor (Homo sapiens), sequence (P08588 whole entry, looked up): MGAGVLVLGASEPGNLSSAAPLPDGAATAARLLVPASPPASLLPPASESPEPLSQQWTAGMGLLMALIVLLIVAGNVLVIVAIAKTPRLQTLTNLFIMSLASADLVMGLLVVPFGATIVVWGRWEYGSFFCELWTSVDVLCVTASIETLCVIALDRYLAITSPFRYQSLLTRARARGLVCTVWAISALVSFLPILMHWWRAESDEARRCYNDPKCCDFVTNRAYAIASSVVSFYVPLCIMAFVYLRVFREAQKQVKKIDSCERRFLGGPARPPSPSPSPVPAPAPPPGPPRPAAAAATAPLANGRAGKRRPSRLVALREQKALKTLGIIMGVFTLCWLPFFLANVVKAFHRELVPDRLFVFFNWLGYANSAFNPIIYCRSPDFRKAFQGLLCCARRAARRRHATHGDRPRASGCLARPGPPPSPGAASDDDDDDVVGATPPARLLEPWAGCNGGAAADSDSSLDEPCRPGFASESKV

[32] = target: Beta-2 adrenergic receptor (Homo sapiens) (UniProt P07550); conditions: Compound concentration 10.0 uM
[33] = target: Muscarinic acetylcholine receptor M1 (Homo sapiens) (UniProt P11229); conditions: Compound concentration 10.0 uM
[34] = target: Muscarinic acetylcholine receptor M2 (Homo sapiens) (UniProt P08172); conditions: Compound concentration 10.0 uM
[35] = target: Muscarinic acetylcholine receptor M3 (Homo sapiens) (UniProt P20309); conditions: Compound concentration 10.0 uM
Muscarinic acetylcholine receptor M3 (Homo sapiens), sequence (P20309 whole entry, looked up): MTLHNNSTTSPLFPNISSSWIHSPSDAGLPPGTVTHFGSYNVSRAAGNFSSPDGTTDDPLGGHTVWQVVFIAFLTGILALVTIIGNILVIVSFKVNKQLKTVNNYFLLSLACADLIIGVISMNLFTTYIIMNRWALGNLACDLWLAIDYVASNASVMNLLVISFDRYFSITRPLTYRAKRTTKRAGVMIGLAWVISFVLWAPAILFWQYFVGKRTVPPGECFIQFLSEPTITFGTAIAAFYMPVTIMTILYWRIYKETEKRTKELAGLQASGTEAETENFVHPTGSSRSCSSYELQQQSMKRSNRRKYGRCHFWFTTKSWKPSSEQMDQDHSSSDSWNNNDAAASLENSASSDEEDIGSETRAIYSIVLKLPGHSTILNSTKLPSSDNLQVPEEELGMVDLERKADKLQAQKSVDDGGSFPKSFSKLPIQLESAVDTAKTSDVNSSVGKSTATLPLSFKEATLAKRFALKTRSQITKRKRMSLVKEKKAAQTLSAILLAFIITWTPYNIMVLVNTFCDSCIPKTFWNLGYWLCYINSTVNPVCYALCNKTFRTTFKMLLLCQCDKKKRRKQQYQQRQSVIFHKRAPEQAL

[36] = target: Muscarinic acetylcholine receptor M4 (Homo sapiens) (UniProt P08173); conditions: Compound concentration 10.0 uM
Muscarinic acetylcholine receptor M4 (Homo sapiens), sequence (P08173 whole entry): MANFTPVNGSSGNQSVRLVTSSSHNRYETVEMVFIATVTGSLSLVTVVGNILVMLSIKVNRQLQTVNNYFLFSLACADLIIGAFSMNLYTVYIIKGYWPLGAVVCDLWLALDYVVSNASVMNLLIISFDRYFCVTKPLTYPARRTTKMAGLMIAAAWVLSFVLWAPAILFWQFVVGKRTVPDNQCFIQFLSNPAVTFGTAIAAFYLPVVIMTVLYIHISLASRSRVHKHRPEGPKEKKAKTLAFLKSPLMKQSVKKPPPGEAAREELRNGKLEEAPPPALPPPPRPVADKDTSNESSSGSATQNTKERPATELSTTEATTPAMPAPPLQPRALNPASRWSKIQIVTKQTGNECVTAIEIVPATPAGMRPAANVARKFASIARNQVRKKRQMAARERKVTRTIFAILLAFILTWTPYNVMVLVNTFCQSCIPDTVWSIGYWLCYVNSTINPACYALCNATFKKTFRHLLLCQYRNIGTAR

[37] = target: Beta-3 adrenergic receptor (Homo sapiens) (UniProt P13945); conditions: Compound concentration 10.0 uM
Beta-3 adrenergic receptor (Homo sapiens), sequence (P13945 whole entry, looked up): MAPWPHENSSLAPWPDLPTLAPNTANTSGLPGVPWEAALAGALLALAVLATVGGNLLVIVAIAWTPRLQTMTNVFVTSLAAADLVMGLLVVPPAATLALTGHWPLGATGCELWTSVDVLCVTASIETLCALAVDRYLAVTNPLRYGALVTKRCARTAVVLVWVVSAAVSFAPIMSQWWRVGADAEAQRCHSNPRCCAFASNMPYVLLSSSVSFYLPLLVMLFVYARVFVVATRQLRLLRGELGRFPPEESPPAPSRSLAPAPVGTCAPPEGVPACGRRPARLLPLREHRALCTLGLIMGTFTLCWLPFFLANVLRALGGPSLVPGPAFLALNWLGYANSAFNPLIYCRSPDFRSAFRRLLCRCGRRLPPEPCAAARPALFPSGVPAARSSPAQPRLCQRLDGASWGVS

[38] = target: T2, GABA-A receptor; anion channel (Rattus norvegicus); conditions: Compound concentration 10.0 uM; remark: listed apart in the source
[39] = organism: Rattus norvegicus; conditions: Compound concentration 10.0 uM
[40] = target: Alpha-1D adrenergic receptor (Homo sapiens) (UniProt P25100); conditions: Compound concentration 10.0 uM
Alpha-1D adrenergic receptor (Homo sapiens), sequence (P25100 whole entry): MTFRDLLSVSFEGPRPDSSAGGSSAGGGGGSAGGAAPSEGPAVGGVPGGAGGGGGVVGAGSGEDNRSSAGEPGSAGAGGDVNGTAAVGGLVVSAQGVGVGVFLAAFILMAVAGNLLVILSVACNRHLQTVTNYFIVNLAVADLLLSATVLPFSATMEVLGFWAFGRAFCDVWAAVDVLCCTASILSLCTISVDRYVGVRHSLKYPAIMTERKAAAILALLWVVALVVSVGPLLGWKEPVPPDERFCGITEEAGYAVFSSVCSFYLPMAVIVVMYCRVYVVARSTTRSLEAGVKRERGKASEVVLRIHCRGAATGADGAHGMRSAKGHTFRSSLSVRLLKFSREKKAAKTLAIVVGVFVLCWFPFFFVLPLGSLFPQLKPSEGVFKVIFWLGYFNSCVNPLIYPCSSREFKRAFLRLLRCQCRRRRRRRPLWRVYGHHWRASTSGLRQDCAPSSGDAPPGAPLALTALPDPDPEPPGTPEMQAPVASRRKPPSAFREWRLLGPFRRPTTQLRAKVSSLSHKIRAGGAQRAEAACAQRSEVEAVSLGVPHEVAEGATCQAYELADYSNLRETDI

[41] = target: Sigma non-opioid intracellular receptor 1 (Homo sapiens) (UniProt Q99720); conditions: Compound concentration 10.0 uM
Sigma non-opioid intracellular receptor 1 (Homo sapiens), sequence (Q99720 whole entry): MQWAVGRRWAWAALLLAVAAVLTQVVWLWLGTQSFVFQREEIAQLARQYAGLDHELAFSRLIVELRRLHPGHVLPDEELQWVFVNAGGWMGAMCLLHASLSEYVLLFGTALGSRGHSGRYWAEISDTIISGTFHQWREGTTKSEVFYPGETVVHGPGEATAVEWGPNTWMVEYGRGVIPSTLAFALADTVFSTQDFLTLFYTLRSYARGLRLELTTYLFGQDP

[42] = FLIPR-TETRA assay
[43] = target: 5-hydroxytryptamine receptor 1A (Homo sapiens, UniProt P08908); assay: GPCRScan assay: inhibition of 5-HT1A; parameters: radioligand conc. used [nm] 0.5 – 1.0, parental cells stable CHO
[44] = target: Histamine H2 receptor (Homo sapiens) (UniProt P25021); conditions: Compound concentration 10.0 uM
[45] = target: Alpha-1B adrenergic receptor (Homo sapiens) (UniProt P35368); conditions: Compound concentration 10.0 uM
[46] = target: Muscarinic acetylcholine receptor M5 (Homo sapiens) (UniProt P08912); conditions: Compound concentration 10.0 uM
[47] = target: Sigma intracellular receptor 2 (Homo sapiens) (UniProt Q5BJF2); conditions: Compound concentration 10.0 uM

T1 sequence (P41595 whole entry): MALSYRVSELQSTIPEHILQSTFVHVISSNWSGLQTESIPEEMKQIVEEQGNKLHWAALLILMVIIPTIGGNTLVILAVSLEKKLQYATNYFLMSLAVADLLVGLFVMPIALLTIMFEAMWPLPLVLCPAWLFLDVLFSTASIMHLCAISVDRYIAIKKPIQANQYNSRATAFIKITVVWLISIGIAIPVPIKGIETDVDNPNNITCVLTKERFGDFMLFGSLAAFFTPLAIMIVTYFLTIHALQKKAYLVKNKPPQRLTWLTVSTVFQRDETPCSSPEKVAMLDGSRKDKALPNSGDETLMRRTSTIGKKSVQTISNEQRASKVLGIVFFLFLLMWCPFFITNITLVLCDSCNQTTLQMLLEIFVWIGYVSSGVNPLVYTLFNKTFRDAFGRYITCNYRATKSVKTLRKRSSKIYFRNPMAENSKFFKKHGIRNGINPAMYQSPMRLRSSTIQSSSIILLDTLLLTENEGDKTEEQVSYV

Nc1nc(NCc2ccccc2)nc(-c2ccccc2CO)n1 [Ogerin]
inactive: inhibition [2] 9.7% | inhibition [3] 7.41% | inhibition [4] 11.2% | inhibition [5] 2.78% | inhibition [7] 9.32% | inhibition [8] 2.24% | inhibition [9] 10.6% | inhibition [10] 19.4% | inhibition [11] 43.9% | inhibition [12] 33.7% | inhibition [13] 10% | inhibition [14] 18.9% | inhibition [15] 4.35% | inhibition [16] 43.9% | inhibition [17] 4.96% | inhibition [18] 32.1% | inhibition [19] 18.1% | inhibition [20] 11.9% | inhibition [21] 12.5% | inhibition [22] 30.2% | inhibition [23] 19.7% | inhibition [24] -4.07% | inhibition [25] -1.93% | inhibition [26] 8.3% | inhibition [27] 25.5% | inhibition [28] 24.4% | inhibition [29] 43.9% | inhibition [30] 0.87% | inhibition [31] 25.5% | inhibition [32] 20.7% | inhibition [33] 23.6% | inhibition [34] 23.2% | inhibition [35] 36% | inhibition [36] -9.42% | inhibition [37] 14.8% | inhibition [38] 32.9% | inhibition [39] 12.9% | inhibition [40] 4.63% | inhibition [41] -0.41%
active: inhibition [6] 81%
490 nM: Ki ([1]; read-out: pKi (converted))
496 nM: Ki ([1]; read-out: Ki)
6.83: pEC50 [42]

Nc1nc(NCc2ccccc2)nc(-c2cccc(CO)c2)n1 [ZINC32547799]
832 nM: Ki ([43]; read-out: pKi (converted))
inactive: inhibition [3] -2.86% | inhibition [4] 13.7% | inhibition [5] 1.28% | inhibition [6] 41.8% | inhibition [7] 3.72% | inhibition [8] 37.2% | inhibition [9] 0.66% | inhibition [10] 26.7% | inhibition [11] 15.9% | inhibition [12] 3.99% | inhibition [13] -7.4% | inhibition [14] 8.38% | inhibition [15] 24.4% | inhibition [17] 9.44% | inhibition [18] 43.6% | inhibition [19] -9.76% | inhibition [20] 8.68% | inhibition [21] 9.2% | inhibition [22] 10.8% | inhibition [24] -5.64% | inhibition [44] 4.01% | inhibition [25] 6.14% | inhibition [26] -9.05% | inhibition [27] 5.91% | inhibition [45] 5.01% | inhibition [28] 7.24% | inhibition [29] 21.8% | inhibition [30] 1.4% | inhibition [31] -3.07% | inhibition [32] 18% | inhibition [33] 35.2% | inhibition [34] 10.8% | inhibition [35] 18.3% | inhibition [36] 21.6% | inhibition [46] 12.8% | inhibition [37] 17.8% | inhibition [38] 18.3% | inhibition [39] 8.6% | inhibition [40] -8.75% | inhibition [47] 12.3% | inhibition [41] 0.95%
active: inhibition [2] 65.5%
850 nM: Ki ([43]; read-out: Ki)
